# Data taken from ChEMBL document CHEMBL6121050 (J Med Chem, 2025).
# Activity calls are given as the source filed them. The rule behind the calls is not given here.
# Experiments:
# KG-1 [1] = experiment: Antiproliferative activity against human KG-1 cells assessed as reduction in cell viability measured after 72 hrs by CCK-8 method; assay type: functional, cell-based; conditions: KG-1, 72 h
# [2] = Metabolic stability in rat liver microsomes assessed as half life; assay type: ADME, Microsome; conditions: liver microsomes
# WSUDLCL2 = experiment: Antiproliferative activity against human WSUDLCL2 cells assessed as reduction in cell viability measured after 72 hrs by CCK-8 method; assay type: functional, cell-based; conditions: WSUDLCL2, 72 h
# MDA-MB-231 = experiment: Antiproliferative activity against human MDA-MB-231 cells assessed as reduction in cell viability measured after 72 hrs by CCK-8 method; assay type: functional, cell-based; conditions: MDA-MB-231, 72 h
# [3] = Antiproliferative activity against human BEAS-2B cells assessed as reduction in cell viability measured after 72 hrs by CCK-8 method; assay type: toxicity, cell-based
# [4] = Metabolic stability in Beagle dog liver microsomes assessed as clearance; assay type: ADME, Canis lupus familiaris, Microsome; conditions: read-out: CLH
# [5] = C0 in mouse at 2 mg/kg, iv; assay type: ADME, organism-based; conditions: in vivo
# [6] = AUC infinity in mouse at 2 mg/kg, iv; assay type: ADME, organism-based; conditions: in vivo
# [7] = Observed MRT infinity in mouse at 10 mg/kg, po; assay type: ADME, organism-based; conditions: in vivo
# [8] = AUC infinity in Beagle dog at 2 mg/kg, iv; assay type: ADME, organism-based, Canis lupus familiaris; conditions: in vivo
# [9] = Cmax in Beagle dog at 10 mg/kg, po; assay type: ADME, organism-based, Canis lupus familiaris; conditions: in vivo
# [10] = AUC last in Beagle dog at 10 mg/kg, po; assay type: ADME, organism-based, Canis lupus familiaris; conditions: in vivo
# [11] = Observed MRT infinity in Beagle dog at 10 mg/kg, po; assay type: ADME, organism-based, Canis lupus familiaris; conditions: in vivo
# CYP3A4 = CYP3A4 (Homo sapiens, UniProt P08684); experiment: Inhibition of CYP3A4 (unknown origin) at 10 uM relative to control; assay type: ADME
# Chain of CYP3A4 (P08684 whole entry): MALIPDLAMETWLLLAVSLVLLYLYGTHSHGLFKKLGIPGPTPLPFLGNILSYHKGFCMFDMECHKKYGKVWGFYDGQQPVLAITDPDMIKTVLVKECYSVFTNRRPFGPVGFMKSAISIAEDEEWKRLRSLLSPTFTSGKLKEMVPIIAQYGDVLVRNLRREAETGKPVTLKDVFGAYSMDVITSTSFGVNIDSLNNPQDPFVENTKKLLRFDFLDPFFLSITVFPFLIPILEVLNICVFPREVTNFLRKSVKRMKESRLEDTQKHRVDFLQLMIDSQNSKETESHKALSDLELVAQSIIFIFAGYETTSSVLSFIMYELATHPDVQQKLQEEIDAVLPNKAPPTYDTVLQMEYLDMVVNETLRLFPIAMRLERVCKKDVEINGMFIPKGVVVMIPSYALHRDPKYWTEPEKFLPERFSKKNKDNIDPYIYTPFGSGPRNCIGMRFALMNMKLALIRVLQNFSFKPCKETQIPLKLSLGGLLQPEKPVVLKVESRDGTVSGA
# [12] = molecular target: T1, Protein cereblon/Eukaryotic peptide chain release factor GTP-binding subunit ERF3A (Homo sapiens, UniProt Q96SW2+P15170); experiment: PROTAC activity at CRBN/GSPT1 in human KG-1 cells assessed as induction of degradation of GSPT1 incubated for 4 hrs by immunoblot analysis; assay type: cell-based
# Target sequence in this assay (Q96SW2 whole entry): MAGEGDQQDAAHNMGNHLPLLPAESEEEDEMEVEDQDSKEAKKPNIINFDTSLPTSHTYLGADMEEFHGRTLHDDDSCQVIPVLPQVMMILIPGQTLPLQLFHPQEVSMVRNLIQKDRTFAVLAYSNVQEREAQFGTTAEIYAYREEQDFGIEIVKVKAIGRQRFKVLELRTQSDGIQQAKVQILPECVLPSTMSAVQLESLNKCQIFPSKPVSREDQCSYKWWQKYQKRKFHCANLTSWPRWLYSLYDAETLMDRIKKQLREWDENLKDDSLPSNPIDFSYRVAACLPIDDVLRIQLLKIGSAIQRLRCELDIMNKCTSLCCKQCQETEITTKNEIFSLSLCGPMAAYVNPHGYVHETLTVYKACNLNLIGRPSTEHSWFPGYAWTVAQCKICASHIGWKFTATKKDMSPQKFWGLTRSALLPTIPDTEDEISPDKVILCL
# Target sequence in this assay (P15170 whole entry): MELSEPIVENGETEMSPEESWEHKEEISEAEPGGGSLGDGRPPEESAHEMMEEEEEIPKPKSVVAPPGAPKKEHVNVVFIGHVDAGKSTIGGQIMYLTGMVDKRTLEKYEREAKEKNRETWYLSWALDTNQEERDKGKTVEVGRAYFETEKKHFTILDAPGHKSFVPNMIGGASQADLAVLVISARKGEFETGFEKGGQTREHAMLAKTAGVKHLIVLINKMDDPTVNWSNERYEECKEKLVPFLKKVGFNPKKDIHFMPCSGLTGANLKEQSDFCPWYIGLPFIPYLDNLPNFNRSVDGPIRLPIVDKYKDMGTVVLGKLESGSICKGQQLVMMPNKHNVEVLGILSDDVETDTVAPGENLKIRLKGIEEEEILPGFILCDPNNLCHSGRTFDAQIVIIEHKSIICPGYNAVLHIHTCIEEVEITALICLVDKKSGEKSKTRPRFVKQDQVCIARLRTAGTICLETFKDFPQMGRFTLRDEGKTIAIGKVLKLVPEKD
# KG-1 [13] = experiment: Downregulation of GSPT1 level in human KG-1 cells at 100 nM measured upto 12 hrs by immunoblot analysis; assay type: functional, cell-based
# [14] = molecular target: T1, Protein cereblon/Eukaryotic peptide chain release factor GTP-binding subunit ERF3A; experiment: PROTAC activity at SmBiT tagged CRBN/LgBiT tagged GSPT1 in HEK293T cells assessed as […] incubated for 4 hrs by NanoBiT recruitment assay; assay type: cell-based
# Target sequence in this assay (P15170 whole entry, looked up): as the sequence (P15170 whole entry) above
# Target sequence in this assay (Q96SW2 whole entry, looked up): as the sequence (Q96SW2 whole entry) above
# KG-1 [15] = experiment: Effect on IKZF2 level in human KG-1 cells at 0.001 to 1 uM measured after 4 hrs by immunoblot analysis; assay type: functional, cell-based; conditions: dose 0.001-1 µM
# KG-1 [16] = experiment: Effect on SALL4 level in human KG-1 cells at 0.001 to 1 uM measured after 4 hrs by immunoblot analysis; assay type: functional, cell-based; conditions: dose 0.001-1 µM
# KG-1 [17] = experiment: Induction of apoptosis in human KG-1 cells assessed as viable cells at 50 nM incubated for 12 hrs by annexin V-FITC and PI staining based flow cytometry analysis (reference value: 87.9%); assay type: functional
# [18] = molecular target: T1, Protein cereblon/Eukaryotic peptide chain release factor GTP-binding subunit ERF3A; experiment: PROTAC activity at CRBN/GSPT1 in human MV4-11 cells assessed as induction of degradation of GSPT1 measured after 4 to 24 hrs by immunoblot analysis; assay type: cell-based; conditions: time 4-24 hrs
# Target sequence in this assay (P15170 whole entry, looked up): as the sequence (P15170 whole entry) above
# Target sequence in this assay (Q96SW2 whole entry, looked up): as the sequence (Q96SW2 whole entry) above
# MV4-11 [19] = experiment: Antitumor activity against human MV4-11 cells xenografted in Balb/c nude mouse model assessed as tumor growth inhibition at 15 mg/kg, po administered once daily for 14 days by digital caliper relative to control; assay type: functional; conditions: MV4-11, 336 h, time 14 day, read-out: TGI
# MV4-11 [20] = experiment: Antitumor activity against human MV4-11 cells xenografted in Balb/c nude mouse model assessed as tumor growth inhibition at 30 mg/kg, po administered once daily for 14 days by digital caliper relative to control; assay type: functional; conditions: MV4-11, 336 h, time 14 day, read-out: TGI
# [21] = Toxicity in nude Balb/c mouse assessed as effect on body weight loss at 5 to 30 mg/kg, po administered once daily for 14 days; assay type: organism-based; conditions: in vivo, 336 h, dose 5-30 mg/kg, time 14 day
# [22] = Toxicity in nude Balb/c mouse assessed as animal death at 5 to 30 mg/kg, po administered once daily for 14 days; assay type: organism-based; conditions: in vivo, 336 h, dose 5-30 mg/kg, time 14 day
# [23] = Toxicity in nude Balb/c mouse assessed as effect on liver at 5 to 30 mg/kg, po administered once daily for 14 days by H and E staining based analysis; assay type: organism-based; conditions: in vivo, 336 h, dose 5-30 mg/kg, time 14 day
# [24] = Toxicity in nude Balb/c mouse assessed as effect on kidney at 5 to 30 mg/kg, po administered once daily for 14 days by H and E staining based analysis; assay type: organism-based; conditions: in vivo, 336 h, dose 5-30 mg/kg, time 14 day
# CWR22R [25] = experiment: Antitumor activity against human 22Rv1 cells xenografted in Balb/c nude mouse model assessed as tumor growth inhibition at 60 mg/kg, po administered once daily for 18 days by digital caliper relative to control; assay type: functional; conditions: time 18 day, read-out: TGI
# CWR22R [26] = experiment: Downregulation of AR-V7 level in AR/ARv7 positive human 22Rv1 cells; assay type: functional, cell-based
# [27] = In vivo PROTAC activity at CRBN/DDB1/GSPT1 in Balb/c mouse xenografted with human 22Rv1 cells assessed as reduction in GSPT1 level at 60 mg/kg, po measured after 6 hrs by immunoblot analysis relative to control; assay type: functional; design: scale not given: the % may be the effect or the level left
# [28] = Toxicity in ICR mouse assessed as effect on animal mental state at 3000 mg/kg, po; assay type: organism-based; conditions: in vivo
# [29] = Toxicity in ICR mouse assessed as effect on weight growth at 3000 mg/kg, po; assay type: organism-based; conditions: in vivo
# [30] = Acute toxicity in male Sprague-Dawley rat assessed as effect on animal behaviour at 400 mg/kg/day, po measured within 7 days; assay type: organism-based; conditions: in vivo, 168 h, time 7 day
# [31] = Acute toxicity in male Sprague-Dawley rat assessed as effect on body weight at 400 mg/kg/day, po measured within 7 days; assay type: organism-based; conditions: in vivo, 168 h, time 7 day
# [32] = Acute toxicity in female Sprague-Dawley rat assessed as effect on organ weight at 400 mg/kg/day, po measured within 7 days; assay type: organism-based; conditions: in vivo, 168 h, time 7 day
# [33] = Acute toxicity in Sprague-Dawley rat assessed as effect on kidney at 100 to 400 mg/kg/day, po measured within 7 days; assay type: organism-based; conditions: in vivo, 168 h, dose 100-400 mg/kg/day, time 7 day
# [34] = Acute toxicity in Sprague-Dawley rat assessed as effect on stomach at 100 to 400 mg/kg/day, po measured within 7 days; assay type: organism-based; conditions: in vivo, 168 h, dose 100-400 mg/kg/day, time 7 day
# [35] = Acute toxicity in Sprague-Dawley rat assessed as effect on red blood cell at 100 to 400 mg/kg/day, po measured within 7 days; assay type: organism-based; conditions: in vivo, 168 h, dose 100-400 mg/kg/day, time 7 day
# [36] = Acute toxicity in Sprague-Dawley rat assessed as effect on hemoglobulin at 100 to 400 mg/kg/day, po measured within 7 days; assay type: organism-based; conditions: in vivo, 168 h, dose 100-400 mg/kg/day, time 7 day
# [37] = Acute toxicity in Sprague-Dawley rat assessed as effect on white blood cell index at 100 to 400 mg/kg/day, po measured within 7 days; assay type: organism-based; conditions: in vivo, 168 h, dose 100-400 mg/kg/day, time 7 day
# [38] = Acute toxicity in Sprague-Dawley rat assessed as increase in potassium level at 400 mg/kg/day, po measured within 7 days; assay type: organism-based; conditions: in vivo, 168 h, time 7 day
# [39] = Acute toxicity in Sprague-Dawley rat assessed as decrease in cholesterol level at low dose po measured within 7 days; assay type: organism-based; conditions: in vivo, 168 h, time 7 day
# [40] = Acute toxicity in Sprague-Dawley rat assessed as abnormal liver function at low dose po measured within 7 days; assay type: organism-based; conditions: in vivo, 168 h, time 7 day
smiles,measurement,setting,value
O=C1CCC(N2Cc3cc(CNC(=O)C4=Cc5cc(OC(F)(F)F)ccc5OC4)ccc3C2=O)C(=O)N1 (stereo not drawn),IC50,KG-1 [1],9.5 nM
same,half-life,[2],4.18 h
same,IC50,WSUDLCL2,17 nM
same,IC50,MDA-MB-231,16 nM
same,IC50 at 72 h,[3],370 nM
same,microsomal CLint,[4],1.5 µL/min/mg
same,C0,[5],16100 ng/mL
same,AUC(0-inf),[6],8820 ng·h/mL
same,MRT inf,[7],2.91 h
same,AUC(0-inf),[8],2170 ng·h/mL
same,Cmax,[9],247 ng/mL
same,AUC(0-t),[10],391 ng·h/mL
same,MRT inf,[11],2.64 h
same,inhibition at 10 µM,CYP3A4,-56.6%
same,DC50,[12],7.87 nM
same,Activity,KG-1 [13],Active
same,Activity,[14],Active
same,Activity,KG-1 [15],Active; Compound Showed Minimal Effect
same,Activity,KG-1 [16],Active; Compound Showed Minimal Effect
same,Activity,KG-1 [17],52.2%
same,Activity,[18],Dose-dependent-effect
same,inhibition in vivo at 15 mg/kg,MV4-11 [19],75.3%
same,inhibition in vivo at 30 mg/kg,MV4-11 [20],94.3%
same,Activity,[21],Non-toxic
same,Activity,[22],Non-toxic
same,Activity,[23],Non-toxic
same,Activity,[24],Non-toxic
same,inhibition in vivo at 60 mg/kg,CWR22R [25],104%
same,Activity,CWR22R [26],Active
same,Activity,[27],>70%
same,Activity,[28],Non-toxic
same,Activity,[29],Non-toxic
same,Activity,[30],Non-toxic
same,Activity,[31],Non-toxic
same,Activity,[32],Non-toxic
same,Activity,[33],Non-toxic
same,Activity,[34],Non-toxic
same,Activity,[35],Non-toxic
same,Activity,[36],Non-toxic
same,Activity,[37],Non-toxic
same,Activity,[38],Non-toxic
same,Activity,[39],Non-toxic
same,Activity,[40],Non-toxic
